Results on three molecules are retold here after ChEMBL document CHEMBL3872258, “Challenges in the development of an M4 PAM in vivo tool compound: The discovery of VU0467154 and unexpected DMPK profiles of close analogs” (Bioorg Med Chem Lett, 2017).

Data set [1] addresses T1, Muscarinic acetylcholine receptor M4 (Rattus norvegicus) (UniProt P08485).
T1 sequence (whole entry): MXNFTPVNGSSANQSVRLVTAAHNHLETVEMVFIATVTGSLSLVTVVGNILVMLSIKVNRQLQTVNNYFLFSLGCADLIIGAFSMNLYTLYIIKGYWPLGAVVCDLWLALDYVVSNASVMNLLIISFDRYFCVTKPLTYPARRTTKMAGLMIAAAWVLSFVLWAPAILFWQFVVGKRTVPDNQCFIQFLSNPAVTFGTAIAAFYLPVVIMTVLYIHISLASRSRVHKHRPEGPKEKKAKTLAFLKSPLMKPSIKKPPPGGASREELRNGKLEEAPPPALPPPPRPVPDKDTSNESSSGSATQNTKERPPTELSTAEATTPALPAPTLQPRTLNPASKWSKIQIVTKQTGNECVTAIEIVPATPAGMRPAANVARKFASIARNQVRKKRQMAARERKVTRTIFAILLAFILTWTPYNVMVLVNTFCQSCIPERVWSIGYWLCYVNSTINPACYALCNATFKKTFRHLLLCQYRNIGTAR
Kind of data set: Positive allosteric modulation of rat M4 receptor expressed in CHO cells co-expressing Gqui5 by calcium mobilization assay relative to acetylcholine. It counts as functional, cell-based. For orientation: Calcium assays in cells follow changes in intracellular calcium, usually with a dye or a luminescent sensor.

A short description of data set [2]: Ratio of unbound concentration in brain to plasma in Sprague-Dawley rat at 1 mg/kg, ip at 0.25 hrs. It counts as ADME, organism-based.
Data set [3] addresses T2, Muscarinic acetylcholine receptor M5 (Homo sapiens, UniProt P08912).
T2 sequence (P08912 whole entry): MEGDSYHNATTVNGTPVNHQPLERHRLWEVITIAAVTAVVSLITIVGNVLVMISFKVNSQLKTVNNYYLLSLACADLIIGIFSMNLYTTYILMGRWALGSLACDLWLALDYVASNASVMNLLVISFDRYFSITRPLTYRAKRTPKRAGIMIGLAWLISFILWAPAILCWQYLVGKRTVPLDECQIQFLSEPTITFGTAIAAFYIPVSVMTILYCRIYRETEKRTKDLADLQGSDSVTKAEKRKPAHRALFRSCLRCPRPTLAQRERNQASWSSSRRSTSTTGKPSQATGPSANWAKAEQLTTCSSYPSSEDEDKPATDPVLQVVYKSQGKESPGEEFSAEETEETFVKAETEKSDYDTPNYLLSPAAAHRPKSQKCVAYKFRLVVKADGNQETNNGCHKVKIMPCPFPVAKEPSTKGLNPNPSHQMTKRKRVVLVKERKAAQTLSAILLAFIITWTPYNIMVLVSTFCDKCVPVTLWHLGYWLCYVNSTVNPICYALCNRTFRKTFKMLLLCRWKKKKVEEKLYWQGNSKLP
Nature of the data set: Binding affinity to human M5 receptor by radio-ligand binding assay.

Data set [4] in a line: Intrinsic clearance in rat. It counts as ADME.
Another data set addresses Cytochrome P450 2C9 (Homo sapiens, UniProt P11712). Nature of the data set: Inhibition of CYP2C9 (unknown origin). It counts as ADME.
Data set [5] has as its target Muscarinic acetylcholine receptor M3 (Homo sapiens, UniProt P20309). Nature of the data set: Displacement of [3H]-N-Methylscopolamine from human M3 receptor expressed in CHOK1 cells. It counts as cell-based, CHO-K1.
Data set [6] in a line: Volume of distribution at steady state in Sprague-Dawley rat at 1 mg/kg, iv. It counts as ADME, organism-based. Conditions: in vivo; for Vd: Sprague-Dawley, read-out: Vdss.
The target in the next data set is Cytochrome P450 2D6 (Homo sapiens, UniProt P10635). Nature of the data set: Inhibition of CYP2D6 (unknown origin). It counts as ADME.
Data set [7] addresses Muscarinic acetylcholine receptor M3 (Rattus norvegicus, UniProt P08483). Kind of data set: Binding affinity to rat M3 receptor by radio-ligand binding assay.
Data set [8] is described as follows: Intrinsic clearance in human. It counts as ADME.
A further data set has as its target Cytochrome P450 3A4 (Homo sapiens, UniProt P08684). Nature of the data set: Inhibition of CYP3A4 (unknown origin). It counts as ADME.
Data set [9] concerns the target T3, Muscarinic acetylcholine receptor M5 (Rattus norvegicus, UniProt P08911).
T3 sequence (P08911 whole entry): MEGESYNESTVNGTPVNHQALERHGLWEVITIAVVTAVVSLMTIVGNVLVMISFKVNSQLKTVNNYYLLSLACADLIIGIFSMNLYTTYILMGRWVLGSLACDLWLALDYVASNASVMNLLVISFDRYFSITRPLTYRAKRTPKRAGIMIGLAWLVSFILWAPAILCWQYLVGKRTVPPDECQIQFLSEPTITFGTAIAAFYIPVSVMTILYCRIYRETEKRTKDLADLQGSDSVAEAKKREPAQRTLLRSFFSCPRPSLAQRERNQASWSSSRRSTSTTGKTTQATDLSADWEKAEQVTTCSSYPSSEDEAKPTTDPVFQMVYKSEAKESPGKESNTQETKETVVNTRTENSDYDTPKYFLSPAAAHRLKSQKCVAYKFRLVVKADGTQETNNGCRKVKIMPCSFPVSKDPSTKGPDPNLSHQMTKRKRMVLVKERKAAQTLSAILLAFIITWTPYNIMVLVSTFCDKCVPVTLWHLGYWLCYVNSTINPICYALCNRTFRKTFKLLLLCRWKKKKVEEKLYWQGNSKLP
Nature of the data set: Binding affinity to rat M5 receptor by radio-ligand binding assay.

Data set [10] is described as follows: Unbound fraction in human plasma. It counts as ADME, cell-free.
Data set [11] deals with T4, Muscarinic acetylcholine receptor M4 (Homo sapiens) (UniProt P08173).
T4 sequence (whole entry): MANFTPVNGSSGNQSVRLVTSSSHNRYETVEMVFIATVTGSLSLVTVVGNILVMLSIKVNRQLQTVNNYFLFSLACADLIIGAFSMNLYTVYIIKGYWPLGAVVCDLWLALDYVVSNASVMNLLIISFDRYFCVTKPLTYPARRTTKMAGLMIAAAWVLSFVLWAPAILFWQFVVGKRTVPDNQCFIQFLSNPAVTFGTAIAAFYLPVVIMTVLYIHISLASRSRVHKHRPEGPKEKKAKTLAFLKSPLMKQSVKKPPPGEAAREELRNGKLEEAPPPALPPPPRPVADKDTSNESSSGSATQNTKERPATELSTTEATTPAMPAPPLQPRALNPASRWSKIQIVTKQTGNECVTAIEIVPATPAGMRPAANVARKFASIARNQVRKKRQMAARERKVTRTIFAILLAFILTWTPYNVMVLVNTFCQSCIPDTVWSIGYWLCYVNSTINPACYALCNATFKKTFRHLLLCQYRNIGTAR
Nature of the data set: Positive allosteric modulation of human M4 receptor expressed in CHO cells co-expressing Gqui5 by calcium mobilization assay relative to acetylcholine. It counts as functional, cell-based.

Data set [12] can be described thus: Unbound fraction in rat brain. The note with it: for fraction unbound: brain. It counts as ADME, tissue-based.

pEC50, pIC50: −log10 of the molar value.

Chain of Muscarinic acetylcholine receptor M3 (Rattus norvegicus, UniProt P08483) (P08483 whole entry): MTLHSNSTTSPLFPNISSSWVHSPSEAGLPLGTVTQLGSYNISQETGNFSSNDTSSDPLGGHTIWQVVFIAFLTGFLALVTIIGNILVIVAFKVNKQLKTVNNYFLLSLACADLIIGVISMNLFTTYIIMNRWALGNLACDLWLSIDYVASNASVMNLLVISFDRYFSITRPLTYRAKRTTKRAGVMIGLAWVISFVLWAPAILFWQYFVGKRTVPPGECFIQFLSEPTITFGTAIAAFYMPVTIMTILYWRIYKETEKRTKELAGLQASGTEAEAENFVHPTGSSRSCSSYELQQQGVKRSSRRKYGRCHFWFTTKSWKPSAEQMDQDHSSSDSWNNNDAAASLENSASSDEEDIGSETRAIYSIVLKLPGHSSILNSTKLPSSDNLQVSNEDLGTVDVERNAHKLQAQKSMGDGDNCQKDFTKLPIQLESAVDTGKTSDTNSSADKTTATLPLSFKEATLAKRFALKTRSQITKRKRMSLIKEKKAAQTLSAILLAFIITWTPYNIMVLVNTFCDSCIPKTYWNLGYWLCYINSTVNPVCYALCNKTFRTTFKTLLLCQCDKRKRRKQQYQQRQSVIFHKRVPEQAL
Chain of Cytochrome P450 3A4 (P08684 whole entry): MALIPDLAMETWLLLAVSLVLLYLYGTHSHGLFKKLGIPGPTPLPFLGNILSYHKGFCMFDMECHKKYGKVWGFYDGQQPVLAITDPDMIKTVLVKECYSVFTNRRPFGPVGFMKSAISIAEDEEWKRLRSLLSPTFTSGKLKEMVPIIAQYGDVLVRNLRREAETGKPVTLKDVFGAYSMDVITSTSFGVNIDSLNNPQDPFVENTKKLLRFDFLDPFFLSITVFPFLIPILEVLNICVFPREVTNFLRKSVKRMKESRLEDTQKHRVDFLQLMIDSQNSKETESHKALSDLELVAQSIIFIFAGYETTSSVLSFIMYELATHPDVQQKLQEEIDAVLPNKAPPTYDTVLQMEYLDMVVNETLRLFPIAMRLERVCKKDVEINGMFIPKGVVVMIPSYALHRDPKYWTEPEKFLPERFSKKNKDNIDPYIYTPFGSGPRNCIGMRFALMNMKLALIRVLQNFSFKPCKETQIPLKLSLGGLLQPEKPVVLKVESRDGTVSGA
Chain of Muscarinic acetylcholine receptor M3 (Homo sapiens, UniProt P20309) (P20309 whole entry): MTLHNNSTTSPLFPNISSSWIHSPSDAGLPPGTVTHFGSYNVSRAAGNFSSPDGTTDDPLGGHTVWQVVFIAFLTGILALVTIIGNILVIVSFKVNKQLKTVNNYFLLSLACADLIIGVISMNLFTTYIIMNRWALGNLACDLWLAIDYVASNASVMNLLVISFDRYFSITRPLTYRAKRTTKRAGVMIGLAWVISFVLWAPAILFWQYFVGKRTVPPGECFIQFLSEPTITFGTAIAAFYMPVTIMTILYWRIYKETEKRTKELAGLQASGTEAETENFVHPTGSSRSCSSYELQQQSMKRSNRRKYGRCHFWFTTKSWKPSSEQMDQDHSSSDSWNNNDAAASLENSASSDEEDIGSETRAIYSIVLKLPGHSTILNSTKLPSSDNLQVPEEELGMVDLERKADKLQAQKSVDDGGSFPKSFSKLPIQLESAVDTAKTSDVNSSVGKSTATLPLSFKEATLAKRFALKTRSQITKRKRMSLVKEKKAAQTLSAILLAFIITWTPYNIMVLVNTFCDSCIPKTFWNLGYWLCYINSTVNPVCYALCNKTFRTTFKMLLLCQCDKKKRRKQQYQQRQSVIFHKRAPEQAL
Chain of Cytochrome P450 2C9 (P11712 whole entry): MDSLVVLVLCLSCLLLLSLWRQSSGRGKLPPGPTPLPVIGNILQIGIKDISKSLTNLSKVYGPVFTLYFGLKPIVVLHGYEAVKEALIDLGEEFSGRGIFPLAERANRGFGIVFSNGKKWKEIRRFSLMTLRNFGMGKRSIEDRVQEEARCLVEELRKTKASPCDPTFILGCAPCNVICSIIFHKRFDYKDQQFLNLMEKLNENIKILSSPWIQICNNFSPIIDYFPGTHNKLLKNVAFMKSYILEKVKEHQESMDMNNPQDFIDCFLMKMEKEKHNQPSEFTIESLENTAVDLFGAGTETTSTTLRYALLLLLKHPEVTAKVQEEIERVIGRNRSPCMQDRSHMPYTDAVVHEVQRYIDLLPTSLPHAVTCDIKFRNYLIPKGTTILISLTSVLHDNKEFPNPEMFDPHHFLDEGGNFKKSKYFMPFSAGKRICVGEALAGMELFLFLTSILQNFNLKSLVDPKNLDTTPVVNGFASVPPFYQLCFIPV
Chain of Cytochrome P450 2D6 (P10635 whole entry): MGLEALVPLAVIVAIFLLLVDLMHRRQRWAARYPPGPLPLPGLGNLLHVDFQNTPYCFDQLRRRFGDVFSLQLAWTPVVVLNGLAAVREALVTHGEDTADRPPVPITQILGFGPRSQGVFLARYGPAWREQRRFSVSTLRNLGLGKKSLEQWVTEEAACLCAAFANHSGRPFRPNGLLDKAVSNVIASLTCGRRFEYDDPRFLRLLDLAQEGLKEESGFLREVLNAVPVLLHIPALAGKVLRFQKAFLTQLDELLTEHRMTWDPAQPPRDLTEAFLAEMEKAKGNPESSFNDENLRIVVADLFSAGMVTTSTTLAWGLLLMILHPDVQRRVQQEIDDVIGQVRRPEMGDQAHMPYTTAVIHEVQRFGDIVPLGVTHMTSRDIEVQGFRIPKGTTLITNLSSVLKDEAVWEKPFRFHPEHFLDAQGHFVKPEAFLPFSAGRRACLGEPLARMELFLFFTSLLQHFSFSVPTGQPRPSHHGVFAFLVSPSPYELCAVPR

Take `Cc1nnc2sc(C(=O)NCc3ccc(S(=O)(=O)C(F)F)cc3)c(N)c2c1C`: the maximal effect (Emax) in data set [1] worked out at 65.2%; in [11], 72.8%. Further, the “K(p,uu,brain)” value in data set [2] is 0.1. For the same molecule, the negative-log EC50 (pEC50) in [3], in data set [5], in [7] and in data set [9] was under 4.52 each time. The intrinsic metabolic clearance (CLint scaled) in data set [4] turned out to be 48.1 mL/min/kg; in data set [8] it was 15.6 mL/min/kg. Also, the pIC50 was under 4.52 against Cytochrome P450 2C9, 4.68 against Cytochrome P450 2D6 and under 4.52 against Cytochrome P450 3A4. In addition, the Vd in [6] worked out at 2.9 L/kg. In [10], this molecule yielded a Fu of 0.053. In addition, in data set [12], the fraction unbound amounted to 0.062.
`Cc1nnc2sc(C(=O)NCc3ccc(S(=O)(=O)C(F)(F)F)cc3)c(N)c2c1C`: the figures for the Emax in data set [1] and in data set [11] were 68.1% and 56.4%, respectively. Also, the “K(p,uu,brain)” value in data set [2] is 1.1. Further, the pEC50 in [3], in data set [5], in data set [7] and in data set [9] was under 4.52 in each case. Besides, the intrinsic clearance (CLint scaled) in data set [4] amounted to 47.7 mL/min/kg; in [8], 19.8 mL/min/kg. In addition, the negative logarithm of the IC50 (pIC50) on Cytochrome P450 2C9, against Cytochrome P450 2D6 and at Cytochrome P450 3A4 was under 4.52 in each case. Further, the Vdss in data set [6] turned out to be 3.1 L/kg. In addition, the Fu in data set [10] is recorded as 0.019; in data set [12], 0.067.
Regarding `Cc1nnc2sc(C(=O)NCc3ccc(S(F)(F)(F)(F)F)cc3)c(N)c2c1C`, the figures for the maximal response (Emax) in [1] and in [11] were 75.7% and 66.1%, respectively. The “K(p,uu,brain)” value in [2] is 0.75. The pEC50 in data set [3], in data set [5], in data set [7] and in [9] was under 4.52 each time. Besides, the values for the CLint scaled in data set [4] and in data set [8] were 95.9 mL/min/kg and 52.8 mL/min/kg, respectively. For the same molecule, the figures for the pIC50 on Cytochrome P450 2C9, against Cytochrome P450 2D6 and against Cytochrome P450 3A4 were under 4.52, 4.62 and under 4.52, respectively. Besides, the Vd in data set [6] is 3.1 L/kg. In data set [10], this molecule showed a Fu of 0.01. The same molecule came in with an unbound share (fraction unbound) in [12] of 0.004.

Usually Emax stands for the size of the effect at its maximum, as opposed to the concentration needed. Usually pEC50 stands for the negative decadic logarithm of the EC50, by convention in mol/L. Read a low pEC50 as a large EC50. What is called CLint scaled is the rate of metabolic loss divided by the concentration. Read a high CLint scaled as faster metabolism. Broadly, the pIC50 is −log10 of the IC50, conventionally taken in molar units. A higher pIC50 goes with a small IC50. One may read the fraction unbound as free concentration divided by total concentration. In general, Vdss refers to the apparent volume that relates the amount in the body to the concentration in plasma or blood. High values mean extensive tissue distribution, low ones confinement near the circulation.
